{
  "source": "paper PMC8538057",
  "about": "“Direct Delivery of ANA-TA9, a Peptide Capable of Aβ Hydrolysis, to the Brain by Intranasal Administration” (Pharmaceutics, 2021)",
  "key": {"[1]": {"assay": "Disposition and nasal absorption of ANA-TA9 in rats (plasma pharmacokinetics after i.v. bolus, i.v. infusion and i.n. administration)", "type": "in vivo, Male Wistar/ST rats", "conditions": "rat", "description": "For i.n. administration, ANA-TA9 was dissolved in PBS at a concentration of 100 mg/mL. For intravenous (i.v.) administration, the nasal solution was diluted to 10 mg/mL with PBS. For i.v. infusion, ANA-TA9 was dissolved in PBS to a concentration of 12 mg/mL. The rats were anesthetized through i.p. administration of a mixture of medetomidine (0.15 mg/kg body weight), midazolam (2 mg/kg body weight), and butorphanol (2.5 mg/kg body weight). The right femoral artery was cannulated with polyethylene tubing. ANA-TA9 was injected into the left femoral vein of 3 rats at a dose of 2 mg (200 μL of a 10 mg/mL PBS solution). Those 3 rats nasally received the same dose of ANA-TA9 (20 μL of a 100 mg/mL PBS solution) under anesthesia. For nasal administration, a micropipette was used. After i.n. administration, the animals were kept conscious in a rat cage ([…], Tokyo, Japan) throughout the experiment after recovery from anesthesia. The PBS solution of ANA-TA9 (12 mg/mL) was infused intravenously for 10 min at a 25 μL/min flow rate. The infused dose was 3 mg/rat. At the appropriate time intervals after administration, blood samples were taken, heparinized, and immediately cooled down on ice, followed by centrifugation at 15,000 rpm for 5 min to obtain the plasma. The plasma samples were stored at -40 °C until the assay. In the preliminary study, it was confirmed that ANA-TA9 stored at -40 °C is stable for at least 2 weeks. The plasma and brain concentrations of ANA-TA9 were determined by LC/MS, LC-20A, and LCMS-2020 (SHIMADZU, Kyoto, Japan). Briefly, 100 μL of the plasma were mixed with 1000 μL of methanol. […] To the dissected brain tissue, 100 μL of ice-cold purified water were added, and the mixture was homogenized under ice-cold conditions. To the homogenate, 4000 μL of ice-cold methanol were added. […] The residues were reconstituted with 100 μL of the mobile phase of the chromatography. In the preliminary study, it was confirmed that the effect of rapid degradation of ANA-TA9 on the assay could be excluded by the treatment on the blood and brain tissues mentioned above. Chromatographic separation was performed using a C18 analytical column (TSKgel ODS 100V, 3 μm, 2.0 mm × 100 mm; TOSOH, Tokyo, Japan). The mobile phase was acetonitrile/0.1% acetic acid (10/90), and the flow rate was 0.2 mL/min. ANA-TA9 eluting from the column was detected with mass spectrometry under the positive mode. Nitrogen gas was used for nebulization at a flow rate of 1.5 L/min. Other conditions (temperature and voltage) were set as the default. The calibration curves of ANA-TA9 in the plasma and the brain were determined. […] The area under the plasma concentration-time profile (AUC) after i.v. and i.n. administration was obtained based on the linear trapezoidal rules. In the case of the i.n. application, the concentrations of the last three samples were extrapolated to estimate the area after the last sampling time. The dose was divided by the AUC to obtain the clearance. After normalization of the AUC with each dose, the bioavailability was calculated by the division of the normalized i.n. AUC by the normalized AUC after i.v. infusion."}, "[2]": {"assay": "In vivo brain distribution study after i.n. and i.p. administration to mice", "parameters": "species or system Male ddY mice", "conditions": "mouse; for Tmax: plasma", "description": "For i.n. administration, ANA-TA9 was dissolved in PBS at a concentration of 100 mg/mL. Since the profile of the concentration in the plasma after i.p. administration was similar with that after i.n. administration, i.p. administration served as the control for i.n. administration. The nasal solution was diluted to 10 mg/mL for i.p. administration. Male ddY mice weighing 25 g were purchased from Japan SLC. The animals were maintained under conventional housing conditions. After anesthetization by the inhalation of isoflurane (2%), ANA-TA9 solution (5 μL each) was administered to both nostrils of the mice. The ANA-TA9 solution (100 μL) was administered peritoneally. After making an incision in the abdomen at 5, 15, 30, 45, 60, and 90 min after administration, blood was collected from the postcaval vein. Soon after the blood sampling, the heparinized ice-cold saline was flushed by perfusion from the left ventricle to remove the blood from the cerebral blood vessel. The whole brain was removed; washed with ice-cold saline; and divided into three sections: olfactory bulb, frontal brain, and occipital brain. The tissue concentrations of ANA-TA9 were measured with LC/MS. The plasma and brain concentrations of ANA-TA9 were determined by LC/MS, LC-20A, and LCMS-2020 (SHIMADZU, Kyoto, Japan). Briefly, 100 μL of the plasma were mixed with 1000 μL of methanol. […] To the dissected brain tissue, 100 μL of ice-cold purified water were added, and the mixture was homogenized under ice-cold conditions. To the homogenate, 4000 μL of ice-cold methanol were added. […] The residues were reconstituted with 100 μL of the mobile phase of the chromatography. In the preliminary study, it was confirmed that the effect of rapid degradation of ANA-TA9 on the assay could be excluded by the treatment on the blood and brain tissues mentioned above. Chromatographic separation was performed using a C18 analytical column (TSKgel ODS 100V, 3 μm, 2.0 mm × 100 mm; TOSOH, Tokyo, Japan). The mobile phase was acetonitrile/0.1% acetic acid (10/90), and the flow rate was 0.2 mL/min. ANA-TA9 eluting from the column was detected with mass spectrometry under the positive mode. Nitrogen gas was used for nebulization at a flow rate of 1.5 L/min. Other conditions (temperature and voltage) were set as the default. The calibration curves of ANA-TA9 in the plasma and the brain were determined. […] For the calculation of the direct transport percentage (DTP), the equation by Fukuda M. et al. was slightly modified. The modified equation is as follows:(1) %DTP=(AUCbrain)IN−(AUCbrain)X/(AUCbrain)IN×100 (2) (AUCbrain)X=(AUCbrain)IP/(AUCplasma)IP×(AUCplasma)IN in the above equation, AUCbrain,i.p. and AUCplasma,i.p. are used in place of AUCbrain,i.v. and AUCplasma,i.v. in the original equation by Fukuda M. et al."}, "[3]": {"conditions": "male, Wistar/ST, in vivo, inhaled or intranasal, 2 mg"}, "[4]": {"conditions": "male, Wistar/ST, in vivo, iv, 2 mg"}, "[5]": {"conditions": "male, Wistar/ST, in vivo, iv, 3 mg/animal"}},
  "note": "Ends that are not written are not given here.",
  "data": [
    {"sequence": "SKGQAYRMI [ANA-TA9]", "values": [
      {"measurement": "bioavailability", "setting": "[1]; male, Wistar/ST, plasma, inhaled or intranasal, i.n. 2 mg, dose-normalized i.n. AUC divided by normalized AUC after i.v. infusion, mean ± S.E. of three experiments, read-out: F (bioavailability), i.n.", "value": "36 ± 4.65", "unit": "%"},
      {"measurement": "Cmax", "setting": "[1]; [3]", "value": "863 ± 187", "unit": "ng/mL"},
      {"measurement": "Tmax", "setting": "[1]; [3]", "value": 1, "unit": "min"},
      {"measurement": "half-life", "setting": "[1]; [4]", "value": "< 1", "unit": "min"},
      {"measurement": "level at 0.5 min", "setting": "[1]; [4]", "value": "575 ± 26", "unit": "ng/mL"},
      {"measurement": "level at 1 min", "setting": "[1]; [4]", "value": "111 ± 10", "unit": "ng/mL"},
      {"measurement": "AUC", "setting": "[1]; [5]", "value": 215, "unit": "ng·h/mL"},
      {"measurement": "clearance", "setting": "[1]; [5]", "value": "260 ± 13.8", "unit": "mL/min"},
      {"measurement": "level at 0.25 h", "setting": "[1]; male, Wistar/ST, in vivo, iv, 3 mg/rat", "value": "172 ± 121", "unit": "ng/mL"},
      {"measurement": "AUC, i.n.", "setting": "[1]; i.n. 2 mg (20 μL of 100 mg/mL PBS solution), plasma, trapezoidal with extrapolation, mean ± S.E. of three experiments", "value": "3.10 ± 0.782", "unit": "µg·min/mL"},
      {"measurement": "plasma concentration at 20 min (after end of i.v. infusion)", "setting": "[1]; in vivo, iv", "value": "below the limit of detection"},
      {"measurement": "tissue level at time at 5 min", "setting": "[2]; male, ddY, in vivo, inhaled or intranasal, 1 mg", "value": "712 ± 54", "unit": "ng/g"},
      {"measurement": "Tmax", "setting": "[2]; male, ddY, inhaled or intranasal, 1 mg, i.n., read-out: time of peak plasma concentration, i.n. (converted)", "value": 5, "unit": "min"},
      {"measurement": "Tmax", "setting": "[2]; male, ddY, ip, 1 mg, i.p., read-out: time of peak plasma concentration, i.p. (converted)", "value": 5, "unit": "min"},
      {"measurement": "time of peak concentration in the frontal brain, i.n.", "setting": "[2]; i.n.", "value": 30, "unit": "min"},
      {"measurement": "time of peak concentration in the occipital brain, i.n.", "setting": "[2]; i.n.", "value": 30, "unit": "min"},
      {"measurement": "time of peak concentration in the olfactory bulb, i.n.", "setting": "[2]; i.n.", "value": 5, "unit": "min"},
      {"measurement": "DTP (direct transport percentage), olfactory bulb", "setting": "[2]; i.n. vs i.p., from the AUC up to 90 min after administration, mean ± SE of four or five animals", "value": "96.3 ± 0.9", "unit": "%"},
      {"measurement": "time of peak concentration in the olfactory bulb, i.p.", "setting": "[2]; i.p.", "value": 15, "unit": "min"},
      {"measurement": "apparent half-life in the olfactory bulb after i.n. administration", "setting": "[2]; in vivo", "value": 15, "unit": "min"},
      {"measurement": "time after i.n. administration at which ANA-TA9 could be detected in the olfactory bulb", "setting": "[2]; in vivo", "value": 60, "unit": "min"},
      {"measurement": "concentration in the olfactory bulb more than 45 min after i.p. application", "setting": "[2]; in vivo, ip", "value": "below the limit of detection"},
      {"measurement": "peak plasma concentration, i.p. relative to i.n. (times higher)", "setting": "[2]; in vivo, ip", "value": "approximately 11 times"}
    ]}
  ]
}
